According to patent publication US8282688B2, “Laccase mediators and methods of use” (Danisco US Inc., priority 2006, dated 2012):
“And” between values parts separate entries of the source, which are not always exact repeats. Equal values may be shown once.

Tests used:
Format in all cases: biochemical
[1] = test system: recombinant laccase D from C. unicolor; assay: Bleaching of denim swatches with recombinant C. unicolor laccase D (Example 5); set-up: key to ΔE (total color difference) Denim swatch Backside / ΔE (total color difference) Denim swatch Frontside: CIE L*a*b* differences, initial minus final; ΔE=(ΔL²+Δa²+Δb²)^1/2
Protocol: Denim legs (made out of sulfur bottom/indigo dyed denim fabric from Cone Mill, style number 1662P) were pretreated with IndiAge® 2XL at a dose of 1 gram per liter in a 50 lb lab scale tumbling washer. The liquor ratio was 6 to 1 (5 kg substrate in 30 liters of water) and the treatment was performed at 55° C. at pH 4.5 for 1 hour. A warm rinse followed the cellulase treatment, after which the fabric was dried in a tumble dryer. A punch press was used to cut ⅝ inch denim disks from IndiAge® 2XL pretreated denim legs. Each denim disk is pre read with a Chroma Meter CR-200 by Minolta in order to determine the CIE L*a*b* values of both the front and backside of the fabric disk.
One denim disk is placed in each well of two duplicate 12 well micro-titer plates. Each well received C. unicolor laccase (20 uL of 1/20 dilution, approx. 20 ppm), mediator (200, 100, 50 or 20 uL of a 20 mM stock solution in methanol) and 50 mM potassium phosphate buffer, pH 6 for a total volume of 2 mL/well. The mediators were methyl syringate (MS), 4-cyano-2,6-dimethoxyphenol (SN) and 3,4,5-trimethoxyphenol (TMP). The plates were sealed and incubated at 50° C. for 2 hours at 150 rpm in a standard incubator. Following this period, the swatches were removed from the plates and carefully placed on a filter paper in a Buchner funnel and washed with copious amounts of water, followed by drying of the residual water under high vacuum overnight. The swatches were then re-read with the chromometer in order to determine the CIE L*a*b* values of both the front and backside of the disk following bleaching. The total color difference (ΔE) is calculated from the difference between the initial and final CIE L*a*b* values according to the formula ΔE=(ΔL^2+Δa^2+Δb^2)^1/2 The total color differences (ΔE) as a function of mediator concentration are plotted in FIGS. 5 and 6.
A denim swatch bleaching assay was performed as described in Example 16, in this instance, using a recombinant form of the laccase D protein derived from C. unicolor.
Two duplicate 12-well plates were loaded with denim disks. The laccase D stock solution (5.5 ABTS units per mL) was dosed at either 25 or 50 uL per well. The mediators used were methyl syringate (MS), 4-cyano-2,6-dimethoxyphenol (SN) and 4-carboxamido-2,6-dimethoxyphenol (SA) and were used at either 0.5 or 1 mM concentration. The results are depicted in FIGS. 7 and 8.

[2] = test system: Cerrena sp. laccase; assay: Soluble indigo bleaching at two pH values, Cerrena sp. laccase (Example 3)
Protocol: (§1) A saturated solution of indigo in N-methylpyrrolidone (NMP) was prepared by stirring indigo (30 mg) in NMP (10 ml) at room temperature for 5 hours. The NMP solution was diluted 10-fold into an aqueous buffer solution resulting in a blue solution. For example, dilution into 50 mM sodium acetate buffer at pH 5, or 50 mM sodium phosphate buffer at pH 7. Solutions were shaken well immediately before use.
(§2) The assay for the bleaching of the solubilized indigo substrate was performed in a 96-well microtitre plate whereby each well received the soluble indigo solution in 50 mM sodium acetate buffer at pH 5 (180 uL), laccase (10 ppm enzyme) and mediator solution (from a 20 mM stock solution in methanol). The total volume of each well was adjusted to 200 uL with deionzed water. A control containing laccase only was run in duplicate. The plate was sealed and incubated at 50° C. for 2 hours at 800 rpm on a heated agitator (Thermomixer, Eppendorf). Following this period, the plates were unsealed and a solution of ascorbic acid (20 uL of a 10% aqueous solution) added to each well in order to reduce the oxidized forms of the mediators. The extent of indigo bleaching was then assessed by determining the absorbance for each well at 600 nm using a microtitre plate reader. The lower the absorbance reading, the greater the extent of indigo bleaching.
(§3) Laccases derived from Myceliophtora (Denilite® II, Novozymes, Bagsvaerd, Denmark), Thielavia (Ecostone LCC10, AB enzymes, Darmstadt, Germany) and Cerrena sp. were assessed for their ability to bleach solubilized indigo in conjunction with low molecular weight mediators at two pH values.
(§4) Bleaching of solubilized indigo in 96-well microtitre plates was performed as described in Example 1, using 3 different laccases at pH values of 5 and 7.

[3] = test system: Thielavia laccase (Ecostone LCC10); assay: Soluble indigo bleaching at two pH values, Thielavia laccase (Example 3)
Protocol: as §1, §2, §3, §4

[4] = test system: Myceliophtora laccase (Denilite II); assay: Soluble indigo bleaching at two pH values, Myceliophtora laccase (Example 3)
Protocol: as §1, §2, §3, §4

[5] = test system: Thielavia sp. laccase (Ecostone LCC10); assay: Bleaching of solubilized indigo, Thielavia sp. laccase with mediators (Example 2); settings: laccase 10 ppm, pH 5, 50° C., 2 hours, n = 2
Protocol: An assay for the bleaching of the solubilized indigo substrate by laccase/mediator combinations was performed in a 96-well microtitre plate as follows
as §1, §2

[6] = mediator 0.5 mM, laccase D stock (5.5 U/mL) 25 uL
[7] = mediator 0.5 mM, laccase D stock (5.5 U/mL) 50 uL
[8] = mediator 1 mM, laccase D stock (5.5 U/mL) 25 uL
[9] = mediator 1 mM, laccase D stock (5.5 U/mL) 50 uL

| Compound | ΔE (total color difference) Denim swatch Backside [1, 6] | ΔE (total color difference) Denim swatch Frontside [1, 6] | ΔL Denim swatch Backside [1, 6] | ΔL Denim swatch Frontside [1, 6] | Δb Denim swatch Backside [1, 6] | Δb Denim swatch Frontside [1, 6] | ΔE (total color difference) Denim swatch Backside [1, 7] | ΔE (total color difference) Denim swatch Frontside [1, 7] | ΔL Denim swatch Backside [1, 7] | ΔL Denim swatch Frontside [1, 7] | Δb Denim swatch Backside [1, 7] | Δb Denim swatch Frontside [1, 7] | ΔE (total color difference) Denim swatch Backside [1, 8] | ΔE (total color difference) Denim swatch Frontside [1, 8] | ΔL Denim swatch Backside [1, 8] | ΔL Denim swatch Frontside [1, 8] | Δb Denim swatch Backside [1, 8] | Δb Denim swatch Frontside [1, 8] | ΔE (total color difference) Denim swatch Backside [1, 9] | ΔE (total color difference) Denim swatch Frontside [1, 9] | further results |
| --- | --- | --- | --- | --- | --- | --- | --- | --- | --- | --- | --- | --- | --- | --- | --- | --- | --- | --- | --- | --- | --- |
| COc1cc(C#N)cc(OC)c1O [SN, 4-cyano-2,6-dimethoxyphenol] | 11.62 and 11.54 | 9.98 and 10.48 | 9.69 and 9.31 | 9.23 and 9.73 | 6.41 and 6.81 | 3.12 and 3.39 | 10.67 and 10.48 | 8.70 and 9.31 | 8.87 and 8.45 | 8.20 and 8.67 | 5.93 and 6.19 | 2.34 and 2.90 | 13.85 and 13.07 | 13.24 and 13.88 | 11.36 and 10.64 | 12.31 and 12.85 | 7.93 and 7.59 | 4.36 and 4.85 | 14.05 and 14.15 | 14.18 and 14.15 | Δa Denim swatch Backside [1, 7]: 0.26 and 0.33; ΔL Denim swatch Backside [1, 9]: 11.25 and 10.98; ΔL Denim swatch Frontside [1, 9]: 12.98 and 12.85; Δa Denim swatch Backside [1, 9]: 0.29 and 0.48; Δb Denim swatch Backside [1, 9]: 8.41 and 8.91; Δb Denim swatch Frontside [1, 9]: 5.33 and 5.50; effectiveness as mediator for swatch bleaching ([1]; recombinant laccase D, mediator 0.5 or 1 mM): most effective mediator |
| COc1cc(C(N)=O)cc(OC)c1O [SA, 4-carboxamido-2,6-dimethoxyphenol] | 6.69 and 6.39 | 5.07 and 5.70 | 4.94 and 4.93 | 4.73 and 5.28 | 4.51 and 4.05 | 1.16 and 1.47 | 6.15 and 6.71 | 3.96 and 4.75 | 4.64 and 5.25 | 3.66 and 4.46 | 4.04 and 4.17 | 0.87 and 0.88 | 8.92 and 8.37 | 7.55 and 7.70 | 7.02 and 6.53 | 7.07 and 7.19 | 5.51 and 5.22 | 1.76 and 1.68 | 8.72 and 9.16 | 6.72 and 7.93 | ΔA600 Cerrena ([2]; pH 5, mediator 250 uM): 0.142; ΔA600 Cerrena ([2]; pH 7, mediator 250 uM): 0.128; ΔA600 Thielavia ([3]; pH 5, mediator 250 uM): 0.170; ΔA600 Thielavia ([3]; pH 7, mediator 250 uM): 0.162; ΔL Denim swatch Backside [1, 9]: 6.52 and 6.82; ΔL Denim swatch Frontside [1, 9]: 6.23 and 7.37; Δa Denim swatch Backside [1, 9]: 0.15 and 0.10; Δb Denim swatch Backside [1, 9]: 5.79 and 6.12; Δb Denim swatch Frontside [1, 9]: 1.73 and 2.11; ΔA600 Myceliophtora ([4]; pH 5, mediator 250 uM): 0.254; ΔA600 Myceliophtora ([4]; pH 7, mediator 250 uM): 0.220; ΔA600 (change in absorbance at 600 nm relative to control) ([5]; mediator 50 mM Concentration (head)): 0.088; ΔA600 (change in absorbance at 600 nm relative to control) ([5]; mediator 500 mM Concentration (head)): 0.170 |
